Experiments:
[1] = phase I study, cited from earlier work
lung cancer xenograft = conditions: mouse, in vivo; cited from earlier work
NCI-H1299 = test: Cell cycle distribution by flow cytometry; format: cell-based; conditions: 50 μM PKC412, 24 hours
[2] = tested on: phosphorylation of protein kinase B/AKT and glycogen synthase kinase 3-beta; test: Immunoblotting of downstream targets of PKC signal transduction after PMA stimulation; format: cell-based; conditions: drug-resistant and drug-sensitive cell lines; PKC412 1 to 10 μM for 2 hours, then PMA 1 μM 10 minutes
Method: Immunoblotting and cell fractionation was performed as described previously (38, 39) using primary antibodies against caspase-9 (Chemicon), caspase-3, BCL-XL, cytochrome c (BD Pharmingen), BAX, BAK, PARP (Upstate), AKT, phospho-AKT, GSK-3beta, phospho-GSK3beta (Cell Signaling), and actin (ICN).

cancer cell lines = conditions: cited from earlier work
A549 cells = test: Drug synergy analysis, PKC412 with etoposide (VP16), sub-G1 flow cytometry; format: cell-based
Method: (§1) All other drugs were purchased from Sigma.
(§2) After 48 hours, the fraction of cells with subdiploid DNA content (sub-G1) was quantified by flow cytometry. DMSO-treated cells (white bars) served as negative controls.

NCI-H460 cells = test: as above; format: cell-based; conditions: simultaneous 25 μM etoposide and escalating PKC412 (0-100 μM), 48 hours
Method: as §1, §2

[3] = tested on: NSCLC cell lines expressing BAK under the control of a tetracycline-regulated promoter; test: Apoptosis induced by PKC inhibitors with conditional BAK expression (DOX), sub-G1 / TMRE / caspase cleavage immunoblot; format: cell-based; conditions: drug-resistant NSCLC cells (A549, NCI-H1299), 48 hours
Method: NSCLC cell lines known in the art were obtained. Unless otherwise specified, NSCLC cells were grown on tissue culture dishes (BD Falcon) in Dulbecco's Modified Eagle Medium supplemented with 10% fetal bovine serum, glucose, L-glutamine and penicillin/streptomycin in a humidified atmosphere at 5% CO2. NSCLC cells conditionally expressing transgenic BAK were obtained using the BD RevTet-On vector system (BD Clontech). A BamHI fragment encoding the full length human BAK cDNA was generated by PCR, confirmed by sequencing, and cloned into the pRevTRE vector. A retroviral BCL-XL expression vector has been described previously (26). Replication-defective retroviral virions were produced by standard calcium phosphate transfection in the FNX ampho packaging cell line (a gift from Dr G. P. Nolan, Stanford). Transductions were performed using filtered supernatants, and populations were selected with hygromycin B and puromycin in the absence of tetracycline, or were obtained by fluorescence activated cell sorting (Coulter) of EGFP-positive cells. […]
Cells with subdiploid DNA content (sub-G1) were quantified by flow cytometry after 48 hours. […] Cells that maintained Δψm (TMRE+) were quantified by TMRE-staining and flow cytometry after 48 hours. […] Whole cell extracts were obtained at 24 hours, and the cleavage of caspase-9, caspase-3 and the caspase substrate PARP was detected by immunoblotting.

NCI-H1299 cells = test: Drug synergy analysis, PKC412 with etoposide (VP16), sub-G1 flow cytometry
[4] = tested on: NSCLC cells expressing BAK under the control of a tetracycline-regulated promoter; test: Apoptosis facilitated by conditionally expressed transgenic BAK; format: cell-based; conditions: BAK induced by DOX; data not shown
[5] = simultaneous 25 μM etoposide and escalating PKC412 (0-100 μM), 48 hours

Row | Compound | safety of combination with CDDP/gemcitabine ([1]; patients with advanced NSCLC, with standard cytotoxic regimen of CDDP/gemcitabine) | safety and feasibility of oral administration ([1]; patients with advanced cancers, oral) | effects in murine xenograft model of lung cancer (lung cancer xenograft) | cell cycle distribution after pre-treatment with PKC412 (NCI-H1299) | phosphorylation of downstream targets of PKC signal transduction (AKT, GSK-3beta) [2] | effect on cancer cell lines (cancer cell lines) | apoptosis after PKC412 pre-treatment versus VP16 pre-treatment (A549 cells; 50 μM PKC412 and 25 μM etoposide, sequential, 24 hours each) | cytotoxicity of combined treatment with PKC412 and VP16 (A549 cells; [5]) | apoptosis with PKC412 plus VP16 compared to VP16 alone (NCI-H460 cells) | sensitisation to PKC412-mediated apoptosis by inducible expression of BAK [3] | apoptosis induced by VP16 given subsequently to PKC412 (NCI-H1299 cells; 50 μM PKC412 24 hours, then 25 μM etoposide another 24 hours) | effect of PKC412 on VP16-induced apoptosis (NCI-H1299 cells; [5]) | effect on apoptosis facilitated by transgenic BAK [4]
1 | CO[C@@H]1[C@H](N(C)C(=O)c2ccccc2)C[C@H]2O[C@]1(C)n1c3ccccc3c3c4c(c5c6ccccc6n2c5c31)C(=O)NC4 [PKC412, N-[(9S,10R,11R,13R)-2,3,10,11,12,13-hexahydro-10-methoxy-9-methyl-1-oxo-9,13-epoxy-1H,9H-diindolo[1,2,3-gh:3′,2′,1′-Im]pyrrolo[3,4j][1,7]benzodiazonin-11-yl]-N-methylbenzamide] | established | safe and feasible | antitumoral and antiangiogenic effects | cell cycle arrest in the G2/M-phase | effectively reduced | induced cell cycle arrest or apoptosis | did not significantly differ | additive cytotoxicity | no further increase in apoptosis | Sensitized | reduced the amount of apoptosis | protected NCI-H1299 cells against VP16-induced apoptosis | 
2 | CN[C@@H]1C[C@H]2O[C@@](C)([C@@H]1OC)n1c3ccccc3c3c4c(c5c6ccccc6n2c5c31)C(=O)NC4 [staurosporine] |  |  | antitumoral and antiangiogenic effects |  |  | induced cell cycle arrest or apoptosis |  |  |  |  |  |  | 
3 | zVAD-fmk |  |  |  |  |  |  |  |  |  |  |  |  | inhibited

Source: patent publication US20080214521A1, “Sensitization of Drug-Resistant Lung Caners to Protein Kinase Inhibitors” (priority 2005, published 2008)
